Reference: patent US20050074803A1, “Method for determining an active agent dose” (Bayer Technology Services GmbH, priority 2003, published 2005)
Where two headings read alike, the source gives them in different places.

Experiments:
[1] = Experimental maximum plasma concentration of digoxin in patients by MDR1 exon 26 (C3435T) polymorphism; assay type: in vivo, human; settings: type TT versus wild type
Text: The transport protein which has been most widely studied and described in the literature is p-glycoprotein (P-Gp) which, besides other organs, is expressed particularly in the gut where it can have an influence on the absorption of orally applied active agents. The associated gene is generally identified as MDR1. MDR1 may be present in different alleles, it being known that these lead to different activity of the associated protein (see Martin F. Fromm, The influence of MDR1 polymorphisms on P-glycoprotein expression and function in humans, Advanced Drug Delivery Reviews 54, 1295 (2002)). For P-Gp, tables of pharmaceutical active agents which are a substrate for it have been published (see for example C. J. Matheny et al., Pharmacokinetic and Pharmacodynamic Implications of P-glycoprotein Modulation, Pharmacotherapy, 21, 778 (2001)). One example of such a substrate is digoxin.
For instance, the Cmax values (maximum plasma concentration) listed in Table 1 are given for the polymorphism in exon 26 (C3435T).

[2] = human
[3] = 0.25 mg digoxin, cited from earlier work

- experimentally found increase of Cmax [1]: 30%
- clearance [2]: 0.48 mL/min/kg
- Papp ([2]; not told): 1.4 ×10⁻⁶ cm/s
- fraction unbound ([2]; plasma): 0.73
SMILES: C[C@H]1O[C@@H](O[C@H]2[C@@H](O)C[C@H](O[C@H]3[C@@H](O)C[C@H](O[C@H]4CC[C@@]5(C)[C@H](CC[C@@H]6[C@@H]5C[C@@H](O)[C@]5(C)[C@@H](C7=CC(=O)OC7)CC[C@]65O)C4)O[C@@H]3C)O[C@@H]2C)C[C@H](O)[C@@H]1O [digoxin]
- Cmax experiment ([3]; patients with CC (wild type) polymorphism in exon 26 (C3435T) of MDR1, plasma): 1.6 ng/mL
- Cmax experiment ([3]; patients with TT (homozygotic) polymorphism in exon 26 (C3435T) of MDR1, plasma): 2.1 ng/mL
